Bridge positions count the residues as written; N and C are the ends. Square brackets hold non-standard residues; d marks the D form. Peptide text beside a SMILES is read from it. * marks the point of attachment. Phe(4-COOH) = N[C@@H](Cc1ccc(C(=O)O)cc1)C(=O)O; Bip = N[C@@H](Cc1ccc(-c2ccccc2)cc1)C(=O)O; Phe(3-Me) = Cc1cccc(C[C@H](N)C(=O)O)c1; Aad = N[C@@H](CCCC(=O)O)C(=O)O; Cha = N[C@@H](CC1CCCCC1)C(=O)O; Pen = CC(C)(S)[C@H](N)C(=O)O; Phg = N[C@H](C(=O)O)c1ccccc1; Carboxymethyl = O=C(O)C*; Orn = NCCC[C@H](N)C(=O)O; Aun = NCCCCCCCCCCC(=O)O; Dab = NCC[C@H](N)C(=O)O; Dap = NC[C@H](N)C(=O)O
Biological target: T1, PD-1/PD-L1 interaction (PE-labeled human PD-L1-Ig binding to Jurkat cell line over-expressing human PD-1) (Homo sapiens, UniProt Q15116)
T1 construct: expressed in transfected cells; host or cells: Jurkat
T1 sequence (Q15116 25-288): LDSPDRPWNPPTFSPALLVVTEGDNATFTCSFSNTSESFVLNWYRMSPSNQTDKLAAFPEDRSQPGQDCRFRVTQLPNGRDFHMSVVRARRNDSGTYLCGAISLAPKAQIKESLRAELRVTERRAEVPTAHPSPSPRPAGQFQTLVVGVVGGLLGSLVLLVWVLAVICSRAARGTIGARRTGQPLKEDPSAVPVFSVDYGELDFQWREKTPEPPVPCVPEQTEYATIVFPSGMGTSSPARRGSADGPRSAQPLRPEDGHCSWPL
Experiment: Jurkat-PD-1 Cell Binding High-Content Screening Assay (CBA)
Format: cell-based
Conditions: Jurkat cell line over-expressing human PD-1; PE-labeled PD-L1-Ig 20 nM final; read-out: Jurkat hPD1-PDL1 IC50
Summary of the method: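 Jurkat-hPD-1 cells, DMEM/10% FCS; cpd 2 h 37° C; PE-PD-L1-Ig 20 nM final, 1 h; 4% PFA fix + Hoechst 33342, 3× dPBS wash; high-content imaging read-out.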

Row | SMILES | IC50 [µM]
1 | Cc1cccc(C[C@@H]2NC(=O)[C@H](CC(=O)O)NC(=O)[C@H](Cc3ccc(OCC(=O)O)cc3)NC(=O)[C@H](Cc3ccc(OCC(=O)O)cc3)NC(=O)CSC[C@@H](C(=O)N[C@@H](CCN)C(=O)NCCCCCCCCCCC(=O)O)NC(=O)[C@H]([C@@H](C)O)NC(=O)[C@H](C(C)C)NC(=O)[C@H](CC(C)C)NC(=O)[C@H](CCN)NC(=O)[C@@H](CC(C)C)NC(=O)[C@H](CCCN)NC(=O)[C@H](Cc3ccc(O)cc3)NC(=O)[C@H](Cc3ccc(-c4ccccc4)cc3)NC(=O)[C@H](CC(C)C)NC2=O)c1 [Compound 2747] ({CH2CO}-Y(Carboxymethyl)Y(Carboxymethyl)D[Phe(3-Me)]L[Bip]Y[Orn][dL][Dab]LVTC[Dab][Aun]-OH; thioether N-14) | 0.045
2 | Cc1cccc(C[C@@H]2NC(=O)[C@H](CC(=O)O)NC(=O)[C@H](Cc3ccc(OCC(=O)O)cc3)NC(=O)[C@H](CN)NC(=O)CSC[C@@H](C(=O)N[C@@H](CCN)C(=O)NCCCCCCCCCCC(=O)O)NC(=O)[C@@H](CC(N)=O)NC(=O)[C@H](C(C)C)NC(=O)[C@H](CC(C)C)NC(=O)[C@H](CCN)NC(=O)[C@@H](CC(C)C)NC(=O)[C@H](CCCN)NC(=O)[C@H](Cc3ccc(O)cc3)NC(=O)[C@H](Cc3ccc(-c4ccccc4)cc3)NC(=O)[C@H](C(C)C)NC2=O)c1 [Compound 2755] ({CH2CO}-[Dap]Y(Carboxymethyl)D[Phe(3-Me)]V[Bip]Y[Orn][dL][Dab]LV[dN]C[Dab][Aun]-OH; thioether N-14) | 0.0305
3 | Cc1cccc(C[C@@H]2NC(=O)[C@H](CC(=O)O)NC(=O)[C@H](Cc3ccc(OCC(=O)O)cc3)NC(=O)[C@H](CN)NC(=O)CSC[C@@H](C(=O)N[C@@H](CCN)C(=O)NCCCCCCCCCCC(=O)O)NC(=O)[C@@H](CCC(=O)O)NC(=O)[C@H](C(C)C)NC(=O)[C@H](CC(C)C)NC(=O)[C@H](CCN)NC(=O)[C@@H](CC(C)C)NC(=O)[C@H](CCCN)NC(=O)[C@H](Cc3ccc(O)cc3)NC(=O)[C@H](Cc3ccc(-c4ccccc4)cc3)NC(=O)[C@H](C(C)C)NC2=O)c1 [Compound 2757] ({CH2CO}-[Dap]Y(Carboxymethyl)D[Phe(3-Me)]V[Bip]Y[Orn][dL][Dab]LV[dE]C[Dab][Aun]-OH; thioether N-14) | 0.177
4 | Cc1cccc(C[C@@H]2NC(=O)[C@H](CC(=O)O)NC(=O)[C@H](Cc3ccc(OCC(=O)O)cc3)NC(=O)[C@H](CN)NC(=O)CSC[C@@H](C(=O)N[C@@H](CCN)C(=O)NCCCCCCCCCCC(=O)O)NC(=O)[C@H](Cc3ccc(O)cc3)NC(=O)[C@H](C(C)C)NC(=O)[C@H](CC(C)C)NC(=O)[C@H](CCN)NC(=O)[C@@H](CC(C)C)NC(=O)[C@H](CCCN)NC(=O)[C@H](Cc3ccc(O)cc3)NC(=O)[C@H](Cc3ccc(-c4ccccc4)cc3)NC(=O)[C@H](C(C)C)NC2=O)c1 [Compound 2758] ({CH2CO}-[Dap]Y(Carboxymethyl)D[Phe(3-Me)]V[Bip]Y[Orn][dL][Dab]LVYC[Dab][Aun]-OH; thioether N-14) | 0.0991
5 | Cc1cccc(C[C@@H]2NC(=O)[C@H](CC(=O)O)NC(=O)[C@H](Cc3ccc(OCC(=O)O)cc3)NC(=O)[C@H](CN)NC(=O)CSC[C@@H](C(=O)N[C@@H](CCN)C(=O)NCCCCCCCCCCC(=O)O)NC(=O)[C@H](Cc3ccc(O)cc3)NC(=O)[C@H](C(C)C)NC(=O)[C@H](CC(C)C)NC(=O)[C@H](CCN)NC(=O)[C@@H](CC(C)C)NC(=O)[C@H](CCCN)NC(=O)[C@H](Cc3ccc(O)cc3)NC(=O)[C@H](Cc3ccc(-c4ccccc4)cc3)NC(=O)[C@H](CC(C)C)NC2=O)c1 [Compound 2759] ({CH2CO}-[Dap]Y(Carboxymethyl)D[Phe(3-Me)]L[Bip]Y[Orn][dL][Dab]LVYC[Dab][Aun]-OH; thioether N-14) | 0.0711
6 | Cc1cccc(C[C@@H]2NC(=O)[C@H](CC(=O)O)NC(=O)[C@H](Cc3ccc(OCC(=O)O)cc3)NC(=O)[C@H](CN)NC(=O)CSC[C@@H](C(=O)N[C@@H](CCN)C(=O)NCCCCCCCCCCC(=O)O)NC(=O)[C@H](Cc3ccc(OCC(=O)O)cc3)NC(=O)[C@H](C(C)C)NC(=O)[C@H](CC(C)C)NC(=O)[C@H](CCN)NC(=O)[C@@H](CC(C)C)NC(=O)[C@H](CCCN)NC(=O)[C@H](Cc3ccc(O)cc3)NC(=O)[C@H](Cc3ccc(-c4ccccc4)cc3)NC(=O)[C@H](C(C)C)NC2=O)c1 [Compound 2760] ({CH2CO}-[Dap]Y(Carboxymethyl)D[Phe(3-Me)]V[Bip]Y[Orn][dL][Dab]LVY(Carboxymethyl)C[Dab][Aun]-OH; thioether N-14) | 0.0381
7 | Cc1cccc(C[C@@H]2NC(=O)[C@H](CC(=O)O)NC(=O)[C@H](Cc3ccc(OCC(=O)O)cc3)NC(=O)[C@H](CN)NC(=O)CSC[C@@H](C(=O)N[C@@H](CCN)C(=O)NCCCCCCCCCCC(=O)O)NC(=O)[C@H](c3ccccc3)NC(=O)[C@H](C(C)C)NC(=O)[C@H](CC(C)C)NC(=O)[C@H](CCN)NC(=O)[C@@H](CC(C)C)NC(=O)[C@H](CCCN)NC(=O)[C@H](Cc3ccc(O)cc3)NC(=O)[C@H](Cc3ccc(-c4ccccc4)cc3)NC(=O)[C@H](C(C)C)NC2=O)c1 [Compound 2761] ({CH2CO}-[Dap]Y(Carboxymethyl)D[Phe(3-Me)]V[Bip]Y[Orn][dL][Dab]LV[Phg]C[Dab][Aun]-OH; thioether N-14) | 0.154

Results, then the compound that gave them:

Row | IC50 [µM] | SMILES
8 | 0.147 | Cc1cccc(C[C@@H]2NC(=O)[C@H](CC(=O)O)NC(=O)[C@H](Cc3ccc(C(=O)O)cc3)NC(=O)[C@H](Cc3ccc(OCC(=O)O)cc3)NC(=O)CSC[C@@H](C(=O)N[C@@H](CCN)C(=O)NCCCCCCCCCCC(=O)O)NC(=O)[C@H]([C@@H](C)O)NC(=O)[C@H](C(C)C)NC(=O)[C@H](CC3CCCCC3)NC(=O)[C@H](CCN)NC(=O)[C@@H](CC(C)C)NC(=O)[C@H](CCCN)NC(=O)[C@H](Cc3ccc(O)cc3)NC(=O)[C@H](Cc3ccc(-c4ccccc4)cc3)NC(=O)[C@H](C(C)C)NC2=O)c1 [Compound 2748] ({CH2CO}-Y(Carboxymethyl)[Phe(4-COOH)]D[Phe(3-Me)]V[Bip]Y[Orn][dL][Dab][Cha]VTC[Dab][Aun]-OH; thioether N-14)
9 | 0.0091 | Cc1cccc(C[C@@H]2NC(=O)[C@H](CC(=O)O)NC(=O)[C@H](Cc3ccc(OCC(=O)O)cc3)NC(=O)[C@H](CN)NC(=O)CSC[C@@H](C(=O)N[C@@H](CCN)C(=O)NCCCCCCCCCCC(=O)O)NC(=O)[C@H](CCCC(N)=O)NC(=O)[C@H](C(C)C)NC(=O)[C@H](CC3CCCCC3)NC(=O)[C@H](CCN)NC(=O)[C@@H](CC(C)C)NC(=O)[C@H](CCCN)NC(=O)[C@H](Cc3ccc(O)cc3)NC(=O)[C@H](Cc3ccc(-c4ccccc4)cc3)NC(=O)[C@H](Cc3ccc(O)cc3)NC2=O)c1 [Compound 2750] ({CH2CO}-[Dap]Y(Carboxymethyl)D[Phe(3-Me)]Y[Bip]Y[Orn][dL][Dab][Cha]V[Aad](NH2)C[Dab][Aun]-OH; thioether N-14)
10 | 0.0125 | Cc1cccc(C[C@@H]2NC(=O)[C@H](CC(=O)O)NC(=O)[C@H](Cc3ccc(OCC(=O)O)cc3)NC(=O)[C@H](CN)NC(=O)CSC[C@@H](C(=O)N[C@@H](CCN)C(=O)NCCCCCCCCCCC(=O)O)NC(=O)[C@H](CCCC(N)=O)NC(=O)[C@H](C(C)C)NC(=O)[C@H](CC3CCCCC3)NC(=O)[C@H](CCN)NC(=O)[C@@H](CC(C)C)NC(=O)[C@H](CCCN)NC(=O)[C@H](Cc3ccc(O)cc3)NC(=O)[C@H](Cc3ccc(-c4ccccc4)cc3)NC(=O)[C@H](C(C)C)NC2=O)c1 [Compound 2751] ({CH2CO}-[Dap]Y(Carboxymethyl)D[Phe(3-Me)]V[Bip]Y[Orn][dL][Dab][Cha]V[Aad](NH2)C[Dab][Aun]-OH; thioether N-14)
11 | 0.113 | Cc1cccc(C[C@@H]2NC(=O)[C@H](CC(=O)O)NC(=O)[C@H](Cc3ccc(OCC(=O)O)cc3)NC(=O)[C@H](CN)NC(=O)CSC(C)(C)[C@@H](C(=O)N[C@@H](CCN)C(=O)NCCCCCCCCCCC(=O)O)NC(=O)[C@H]([C@@H](C)O)NC(=O)[C@H](C(C)C)NC(=O)[C@H](CC3CCCCC3)NC(=O)[C@H](CCN)NC(=O)[C@@H](CC(C)C)NC(=O)[C@H](CCCN)NC(=O)[C@H](Cc3ccc(O)cc3)NC(=O)[C@H](Cc3ccc(-c4ccccc4)cc3)NC(=O)[C@H](C(C)C)NC2=O)c1 [Compound 2753] ({CH2CO}-[Dap]Y(Carboxymethyl)D[Phe(3-Me)]V[Bip]Y[Orn][dL][Dab][Cha]VT[Pen][Dab][Aun]-OH; thioether N-14)
12 | 0.0539 | Cc1cccc(C[C@@H]2NC(=O)[C@H](CC(=O)O)NC(=O)[C@H](Cc3ccc(OCC(=O)O)cc3)NC(=O)[C@H](CN)NC(=O)CSC[C@@H](C(=O)N[C@@H](CCN)C(=O)NCCCCCCCCCCC(=O)O)NC(=O)[C@@H](CC(N)=O)NC(=O)[C@H](C(C)C)NC(=O)[C@H](CC3CCCCC3)NC(=O)[C@H](CCN)NC(=O)[C@@H](CC(C)C)NC(=O)[C@H](CCCN)NC(=O)[C@H](Cc3ccc(O)cc3)NC(=O)[C@H](Cc3ccc(-c4ccccc4)cc3)NC(=O)[C@H](C(C)C)NC2=O)c1 [Compound 2754] ({CH2CO}-[Dap]Y(Carboxymethyl)D[Phe(3-Me)]V[Bip]Y[Orn][dL][Dab][Cha]V[dN]C[Dab][Aun]-OH; thioether N-14)
13 | 0.0407 | Cc1cccc(C[C@@H]2NC(=O)[C@H](CC(=O)O)NC(=O)[C@H](Cc3ccc(OCC(=O)O)cc3)NC(=O)[C@H](CN)NC(=O)CSC[C@@H](C(=O)N[C@@H](CCN)C(=O)NCCCCCCCCCCC(=O)O)NC(=O)[C@@H](CCC(=O)O)NC(=O)[C@H](C(C)C)NC(=O)[C@H](CC3CCCCC3)NC(=O)[C@H](CCN)NC(=O)[C@@H](CC(C)C)NC(=O)[C@H](CCCN)NC(=O)[C@H](Cc3ccc(O)cc3)NC(=O)[C@H](Cc3ccc(-c4ccccc4)cc3)NC(=O)[C@H](C(C)C)NC2=O)c1 [Compound 2756] ({CH2CO}-[Dap]Y(Carboxymethyl)D[Phe(3-Me)]V[Bip]Y[Orn][dL][Dab][Cha]V[dE]C[Dab][Aun]-OH; thioether N-14)

Reference: patent US20260022142A1, “MACROCYCLIC IMMUNOMODULATORS” (Bristol-Myers Squibb Company, priority 2022, published 2026)
